Reference: ChEMBL document CHEMBL1147011, “Antimalarial effect of bis-pyridinium salts, N,N'-hexamethylenebis(4-carbamoyl-1-alkylpyridinium bromide)” (Bioorg Med Chem Lett, 2006)

Legend:
FM3A [1] = assay: Cytotoxicity against mouse FM3A cell line; assay type: functional, cell-based
Plasmodium falciparum = assay: Antimalarial activity against chloroquine-sensitive Plasmodium falciparum FCR3; assay type: functional, organism-based
FM3A [2] = assay: Selectivity ratio of EC50s against Plasmodium falciparum FCR3 to mice (Mus musculus) FM3A cells; assay type: functional

| SMILES | EC50 (Plasmodium falciparum) [nM] | EC50 (FM3A [1]) [nM] | Ratio EC50 (FM3A [2]) |
| --- | --- | --- | --- |
| CCCCCCCCCCCCCC[n+]1ccc(C(=O)NCCCCCCNC(=O)c2cc[n+](CCCCCCCCCCCCCC)cc2)cc1.[Br-].[Br-] | 1100 | 2800 | 3 |
| C=C[C@H]1CN2CC[C@H]1C[C@H]2[C@H](O)c1ccnc2ccc(OC)cc12 [QUININE] |  |  | 910 |
| CCCCCCCCCCCCCCCC[n+]1ccc(C(=O)NCCCCCCNC(=O)c2cc[n+](CCCCCCCCCCCCCCCC)cc2)cc1 | 3500 | 2200 |  |
| CCN(CC)CCCC(C)Nc1ccnc2cc(Cl)ccc12 (centres undefined) [CHLOROQUINE] |  |  | 1800 |

The remaining molecules from weak to strong by EC50 (Plasmodium falciparum), led by results:

| EC50 (Plasmodium falciparum) [nM] | SMILES | EC50 (FM3A [1]) [nM] | Ratio EC50 (FM3A [2]) |
| --- | --- | --- | --- |
| 130 | CCCCCCCCCCCC[n+]1ccc(C(=O)NCCCCCCNC(=O)c2cc[n+](CCCCCCCCCCCC)cc2)cc1.[Br-].[Br-] | 420 | 3 |
| 52 | CCCCCC[n+]1ccc(C(=O)NCCCCCCNC(=O)c2cc[n+](CCCCCC)cc2)cc1.[Br-].[Br-] | > 17300 | >333 |
| 40 | CCCCCCCCCC[n+]1ccc(C(=O)NCCCCCCNC(=O)c2cc[n+](CCCCCCCCCC)cc2)cc1.[Br-].[Br-] | 450 | 11 |
| 10 | CCCCCCCC[n+]1ccc(C(=O)NCCCCCCNC(=O)c2cc[n+](CCCCCCCC)cc2)cc1.[Br-].[Br-] | 5800 | 580 |
